The results in this text go back to patent US20240207282A1, “METHOD OF INCREASING CHAPERONE MEDIATED AUTOPHAGY BY STABILIZING THE INTERACTION OF RETINOIC ACID RECEPTOR-ALPHA AND AN INHIBITOR” (ALBERT EINSTEIN COLLEGE OF MEDICINE, priority 2021, published 2024).

One series concerns NIH3T3. Put plainly: Cell viability under paraquat oxidative stress. Type of series: cell-based, mouse. As to the method: Cells: NIH3T3 mouse fibroblasts and the N2a neuroblastoma cell line were obtained from the American Type Culture Collection and were validated by genomic PCR. Primary human fibroblasts (GM01651) were from Coriell Repository. All the cells lines were tested for mycoplasma contamination using DNA staining protocol with Hoechst 33258 dye. Knock-down of NCoR1 was done using lentiviral mediated shRNA (SHCLNG-NM_011308) from the Sigma Mission library following standard procedures. Efficiency of knock-down was tested by immunoblot. Cell viability was measured using the CellTiter-Blue kit (Promega) 24 h after the addition of the different stressors according to manufacturer's instructions.

Series [1] in a line: Bidirectional permeability assay with CaCo-2 cells. In kind it is in vitro ADME. As for the experimental part:
In vitro solubility in the following conditions A) HBSS/HEPES 10 mM/BSA 0.1% pH 6 B) HBSS/HEPES 10 mM/BSA 0.1% pH 7.4 C) TRIS/BSA 0.1% PBS (pH 7.4 and at indicated doses were measured by Nephelometry using the NEPHELOstar Galaxy apparatus (BMG Lab Technologies). In vitro stability in human, mouse and rat liver microsomes and permeability using a bidirectional permeability assay with CaCo-2 cells (pH 6.5/7.4) assays were performed with standard methodology and analyzed by LC-MS/MS. at SIMM-SERVIER joint Biopharmacy Laboratory. In silico ADME properties calculated by QikProp (Schrodinger, LLC) analysis and ADME predictions for CA39 (left) and CA77 (right).
In general terms: Passage across Caco-2 layers is used to estimate intestinal permeability.

Series [2] concerns retinal explants of rd10 mice. Put plainly: Ex vivo retinal explants of rd10 mice. The arrangement: species or system mouse. Particulars: 10 μM, 24 h; vs contralateral untreated explant. As for the experimental part: Ex-vivo retinal cultures: After removal of the eyes, all non-relevant tissue was removed from the neuroretina, which was then placed, photoreceptors upside down, in millicell support inserts (Millipore) and maintained in DMEM with 1 μM insulin (SIGMA, I2643-25 mg) for 24 h at 37° C. in a 5% CO2 atmosphere. Where indicated, retinas were incubated with 10 µM CA77 for the indicated times. The retinas were then washed twice with phosphate-buffered saline (PBS), fixed overnight in 4% paraformaldehyde (w/v) in 0.1 M phosphate buffer (pH 7.4) and processed.
Staining of whole-mount retinas: Immunostainings were performed overnight at 4° ° C. using antibodies against visual arrestin (Santacruz Biotechnologies) and Opsin R/G (Millipore) after initial permeabilization with 2% Triton X-100 for 1 h at RT and subsequent incubation with blocking solution (10% normal goat serum, 0.25% Triton X-100 in PBS). The retinas were then washed and incubated for 1 h with Alexa 568 or 647 (Invitrogen), counterstained with DAPI, mounted in Fluoromount, and visualized by confocal microscopy in a SP5 confocal microscope (TCS SP5; Leica Microsystems).

With `Clc1ccc2c(c1)OCC(c1ccc(-c3ccccc3)cc1)=N2` [CA39], the protection against paraquat entry in the series with NIH3T3 (compound added after the insult, compared with AR7) is reported as “significantly higher protection than AR7”. Further, the “cell death under paraquat” value in the series with NIH3T3 (compound administered before the insult) is listed as “reduced cell death”.
Regarding `CC(=O)Nc1ccc(C2=Nc3ccc(Cl)cc3OC2)cc1` [CA77], the membrane permeability result in series [1] is “highly membrane permeable”. For the same compound, in series [2], the “cones (opsin-positive)” value is “higher preservation also for cones” and the “number of rods (rod arrestin-positive)” value is reported as “significant preservation of the number of rods”.
